# Measurements taken from US20050272707A1, “Method for preventing or reducing secondary fractures after hip fracture” (priority 2002, published 2005).
# “Also recorded” adds a separate entry of the source.
# How the values were obtained:
# bone resorption [1] = details: cited from earlier work
# [2] = stability of diluted infusion solution; assay type: physicochemical; details: diluted with infusion media, 2-8° C.
# Procedure: The cumulative time between dilution with infusion media, storage in a refrigerator and end of administration must not be longer than 24 hours. Ideally, diluted zoledronic acid solutions should be used immediately. However, if diluted zoledronic acid solutions cannot be used immediately, the solutions must be refrigerated at temperatures between 2-8° C. Before administration, the solution should be allowed to slowly warm to room temperature again.
# bone resorption [3] = details: variety of assays of bone metabolism; cited from earlier work
# [4] = test system: subsequent osteoporotic fractures after hip fracture; experiment: placebo-controlled study of intravenous zoledronic acid in preventing subsequent osteoporotic fractures after a hip fracture; assay type: in vivo, human patients; details: patients after recent surgical repair of hip fracture; 5 mg i.v. once per year plus vitamin D and calcium vs vitamin D and calcium alone; 12 and 24 months
# Source text: “A Multinational, multicenter, double-blind, randomized, placebo-controlled, parallel-group study assessing the efficacy of intravenous zoledronic acid in preventing subsequent osteoporotic fractures after a hip fracture” is undertaken.
# This will be a multicenter, randomized, double-blind, placebo-controlled, parallel group trial in men and women. Patients undergoing recent surgical repair of a low-trauma hip fracture will be eligible for enrollment. There will be at least 3 study contacts with patients after randomization within the first 24 months. Patients will have additional visits annually until 211 patients have reached the primary endpoint. The final visit for patients will be contingent on when this endpoint is achieved. Once the endpoint is achieved all patients will need to come in for a final visit. The final visit will be no less than 30 days from the patient's last dose of study medication or no more than 90 days after the day 211 patients have reached the primary endpoint. […]
# The primary efficacy endpoint is time to first clinical fracture. Between treatment differences will be evaluated using a log-rank test to compare the time to clinical fracture between the two treatment groups. […]
compound,measurement,setting,value
"O=P(O)(O)C(O)(Cn1ccnc1)P(=O)(O)O [zoledronic acid, 1-hydroxy-2-(imidazol-1-yl)ethane-1,1-diphosphonic acid]",untoward effects on bone formation or mineralization,bone resorption [1]; at 0.3-30 nM in vitro and 0.3-30 μg/kg in vivo,without exerting any untoward effects on either bone formation or mineralization
same,doses at which inhibition of bone resorption in vivo was demonstrated,bone resorption [1]; in vivo,0.3 to 30 µg/kg
same,stability of diluted infusion solutions,[2],at least 24 hours
same,concentrations at which inhibition of bone resorption in vitro was demonstrated,bone resorption [3],0.3 to 30 nM
same,rate of subsequent (secondary) osteoporotic fractures,[4],significant reduction in secondary osteoporotic fractures; also recorded: significantly reduces the rate of all subsequent osteoporotic skeletal fractures
